Consider 2 compounds from article PMC12382614, “(Oxidopyridyl)Porphyrins of Different Lipophilicity: Photophysical Properties, ROS Production and Phototoxicity on Melanoma Cells Under CoCl2-Induced Hypoxia” (Antioxidants, 2025).

On the set-up of series [1]: method as in PMID 3222336. The settings on record: reference compound; cited from earlier work.
For series [2] the following is noted: cited from earlier work.
The next series has as its system HIF-1α. As to the kind of experiment: Hypoxia induction with CoCl2, Western blot. The class given is cell-based, human. The settings on record: A375 cell line, 100 μM CoCl2 in DMEM, 1 and 2 h. On the procedure:
The cells were seeded into 12-well plates at a concentration of 10^5 cells/well. After the cells had reached full morphology (approx. 48 h), the medium was replaced with fresh medium containing cobalt(II) chloride (CoCl2) at a concentration of 100 μM, followed by incubation at 37 °C for 1 and 2 h. In the control sample, fresh medium without CoCl2 was added. After the incubation, cells were kept on ice and washed with ice-cold 1x PBS. After removing the 1x PBS, the cells were lysed with ice-cold radio-immunoprecipitation assay buffer (RIPA) buffer (50 mM Tris, 150 mM NaCl, 0.5% sodium deoxycholate, and 1% Triton X-100) and then incubated on ice for 30 min. The cells were centrifuged at 14,000 rpm at 4 °C for 10 min to separate the DNA in pellets and proteins in the supernatant. The supernatant was collected, and 4× Laemmli sample buffer (50 mM Tris pH 6.8, 10% glycerol, 2% SDS, 2% 2-mercaptoethanol, and 0.04% bromophenol blue) was added. The samples were heated at 95 °C for 10 min before separation on 10% polyacrylamide gels (SDS-PAGE). All gels were transferred to nitrocellulose membranes using the semi-dry transfer system at 100 V (Trans-Blot Turbo RTA Transfer kit, Bio Rad, Hercules, CA, USA, #1704270). […]

On to `C1=Cc2nc1c(-c1ccccc1)c1nc(c(-c3ccccc3)c3ccc([nH]3)c(-c3ccccc3)c3ccc([nH]3)c2-c2ccccc2)C=C1` [TPP, tetraphenylporphyrin, reference compound], for which, in series [1], the τFL is listed as 10.7 ns. In addition, the ΦISC in series [2] (reference compound (in toluene)) is listed as 0.87. In addition, in series [2] (reference compound), the εT-T is 66 600 M^−1cm^−1 and the τT is 90 μs.
Take `[Cl-].[Cl-].[Co+2]` [CoCl2, Cobalt(II) chloride]: in the series with HIF-1α, the “HIF-1α protein level (Western blot, normalised to β-actin)” value is “accumulation of HIF-1α”.
